Results taken from patent publication US20260041640A1 (INCYCLIX BIO, LLC, priority 2023, published 2026).

Tests used:
[1] = test system: ST4316B ER+, CDK4/6 inhibitor-resistant breast PDX model; assay: ST4316B ER+, CDK4/6 inhibitor-resistant breast PDX model; assay type: in vivo, athymic nude mice
Experimental: Athymic nude, outbread homozygous (Crl:NU(NCr)-Foxnl^nu) 6-12-week-old ST4316B [HX] mice were analyzed. Tumor fragments from ST4316B were harvested from host animals and implanted into immune-deficient mice and the study initiated at a mean tumor volume of approximately 150-300 mm^3. […] Data collected from this study included animal weights, observations, and tumor dimensions. This information was used to determine agent tolerability based on weight change and gross physiologic changes; and anticancer activity based on tumor growth inhibition or regression. […]

[2] = Plasma protein binding, mouse; assay type: in vitro ADME
Description: Additionally, the whole blood-to-plasma ratio (KWB/P) in humans is 6.20, which also exceeds the other species tested (Table 7).

## NS(=O)(=O)c1ccc(Nc2ncc3cc4n(c3n2)C2(CCCCC2)C(=O)NN4)cc1 [INX-315]
[1]; Day 31, INX-315 100 mg/kg BID + ribociclib 50 mg/kg QD, p=0.0033
  tumor growth inhibition versus control: statistically significant tumor growth inhibition
[1]; Day 45, INX-315 100 mg/kg BID + ribociclib 50 mg/kg QD (Group 8), p<0.0002
  tumor growth inhibition percentage (TGI %): 65%
[2]
  fraction unbound: 0.023
